Test results: patent US20250100960A1, “NAPHTHALENE AND QUINOLINE ANALOGS AS RXFP1 AGONISTS” (BRISTOL-MYERS SQUIBB COMPANY, priority 2021, published 2025)

Target: T1, human RXFP1 (Homo sapiens, UniProt Q9HBX9)
T1 construct: expressed in transfected cells; host or cells: HEK293
T1 sequence (Q9HBX9 1-757): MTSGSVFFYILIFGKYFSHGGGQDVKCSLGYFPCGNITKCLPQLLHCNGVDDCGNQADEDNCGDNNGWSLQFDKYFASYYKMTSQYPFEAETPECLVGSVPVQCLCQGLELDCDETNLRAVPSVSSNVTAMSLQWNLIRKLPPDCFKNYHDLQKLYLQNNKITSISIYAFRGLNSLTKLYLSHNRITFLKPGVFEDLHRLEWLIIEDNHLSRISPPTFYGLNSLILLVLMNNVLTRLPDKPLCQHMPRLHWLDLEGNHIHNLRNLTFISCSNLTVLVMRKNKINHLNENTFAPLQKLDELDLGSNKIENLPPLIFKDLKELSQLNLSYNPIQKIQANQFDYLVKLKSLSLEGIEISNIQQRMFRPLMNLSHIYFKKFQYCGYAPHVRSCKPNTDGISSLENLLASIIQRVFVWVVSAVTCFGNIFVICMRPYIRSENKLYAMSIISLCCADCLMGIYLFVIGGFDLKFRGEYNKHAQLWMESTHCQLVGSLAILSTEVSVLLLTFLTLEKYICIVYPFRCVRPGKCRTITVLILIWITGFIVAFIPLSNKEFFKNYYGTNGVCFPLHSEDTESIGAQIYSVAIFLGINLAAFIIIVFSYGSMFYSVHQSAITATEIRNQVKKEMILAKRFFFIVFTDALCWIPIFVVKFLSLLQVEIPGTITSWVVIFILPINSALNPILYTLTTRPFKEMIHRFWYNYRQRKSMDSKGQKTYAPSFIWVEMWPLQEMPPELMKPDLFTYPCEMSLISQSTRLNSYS
Test: hRXFP1 HEK293 cAMP assay
Format: cell-based
Settings: HEK293 cells stably expressing human RXFP1; intracellular cAMP by HTRF; 30 min at room temperature
Method: RXFP1 Cyclic Adenosine Monophosphate (cAMP) Assays. Human embryonic kidney cells 293 (HEK293) cells and HEK293 cells stably expressing human RXFP1, were cultured in MEM medium supplemented with 10% qualified FBS, and 300 μg/ml hygromycin (Life Technologies). Cells were dissociated and suspended in assay buffer. The assay buffer was HBSS buffer (with calcium and magnesium) containing 20 mM HEPES, 0.05% BSA, and 0.5 mM IBMX. Cells (3000 cells per well, except 1500 cell per well for HEK293 cells stably expressing human RXFP1) were added to 384-well Proxiplates (Perkin-Elmer). Cells were immediately treated with test compounds in DMSO (2% final) at final concentrations in the range of 0.010 nM to 50 μM. Cells were incubated for 30 min at room temperature. The level of intracellular cAMP was determined using the HTRF HiRange cAMP assay reagent kit (Cisbio) according to manufacturer's instructions. Solutions of cryptate conjugated anti-cAMP and d2 fluorophore-labelled cAMP were made in a supplied lysis buffer separately. Upon completion of the reaction, the cells were lysed with equal volume of the d2-cAMP solution and anti-cAMP solution. After a 1 h room temperature incubation, time-resolved fluorescence intensity was measured using the Envision (Perkin-Elmer) at 400 nm excitation and dual emission at 590 nm and 665 nm. A calibration curve was constructed with an external cAMP standard at concentrations ranging from 2.7 μM to 0.1 μM by plotting the fluorescent intensity ratio from 665 nm emission to the intensity from the 590 nm emission against cAMP concentrations. The potency and activity of a compound to […] cAMP production was then determined by fitting to a 4-parametric logistic equation from a plot of cAMP level versus compound concentrations.
The examples disclosed below were tested in the human RXFP1 (hRXFP1) HEK293 cAMP assay described above and found to have agonist activity. Tables 1-3, lists EC50 values in the hRXFP1 HEK293 cAMP assay measured for the examples.

Which EC50 does the source give for COc1ccc(-c2cc(C(O)C(=O)O)ccc2F)cc1C(=O)Nc1cc2ccccc2cc1C(=O)Nc1ccc(F)c(C(F)(F)F)c1 (single isomer, unassigned) [Example 4, 2-(6-fluoro-3′-((3-((4-fluoro-3-(trifluoromethyl)phenyl)carbamoyl)naphthalen-2-yl)carbamoyl)-4′-methoxy-[1,1′-biphenyl]-3-yl)-2-hydroxyacetic acid] here?
The EC50 was 490 nM.

With COc1ccc(C2=NOC3CC(CO)CC23)cc1C(=O)Nc1cc2ccccc2cc1C(=O)Nc1ccc(F)c(C(F)(F)F)c1 (single isomer, unassigned) [Example 13, N-(4-fluoro-3-(trifluoromethyl)phenyl)-3-(5-(5-(hydroxymethyl)-3a,5,6,6a-tetrahydro-4H-cyclopenta[d]isoxazol-3-yl)-2-methoxybenzamido)-2-naphthamide] as the molecule, how does the EC50 read?
The EC50 was 320 nM.

With COc1ccc(C2=NOC3CC(CO)CC23)cc1C(=O)Nc1cc2ccccc2cc1C(=O)Nc1ccc(F)c(C(F)(F)F)c1 (single isomer, unassigned) [Example 14, N-(4-fluoro-3-(trifluoromethyl)phenyl)-3-(5-(5-(hydroxymethyl)-3a,5,6,6a-tetrahydro-4H-cyclopenta[d]isoxazol-3-yl)-2-methoxybenzamido)-2-naphthamide] as the molecule, how does the EC50 read?
Its EC50 is 60 nM.

With COc1ccc(C2=NOC3CC(O)CC23)cc1C(=O)Nc1cc2ccccc2cc1C(=O)Nc1ccc(F)c(C(F)(F)F)c1 (single isomer, unassigned) [Example 15, N-(4-fluoro-3-(trifluoromethyl)phenyl)-3-(5-(5-hydroxy-3a,5,6,6a-tetrahydro-4H-cyclopenta[d]isoxazol-3-yl)-2-methoxybenzamido)-2-naphthamide] as the molecule, how does the EC50 read?
Its EC50 is 190 nM.

For COc1ccc(-c2cc(C(=O)O)ccc2F)cc1C(=O)Nc1cc2ccccc2cc1C(=O)Nc1ccc(F)c(C(F)(F)F)c1 [Example 1, 6-fluoro-3′-((3-((4-fluoro-3-(trifluoromethyl)phenyl)carbamoyl)naphthalen-2-yl)carbamoyl)-4′-methoxy-[1,1′-biphenyl]-3-carboxylic acid], which EC50 is on record?
The EC50 was 1100 nM.

With COc1ccc(-c2cc(C(NC(=O)C3CCOCC3)C(=O)O)ccc2F)cc1C(=O)Nc1cc2ccccc2cc1C(=O)Nc1ccc(F)c(C(F)(F)F)c1 (stereo not drawn) [Example 2, 2-(6-fluoro-3′-((3-((4-fluoro-3-(trifluoromethyl)phenyl)carbamoyl)naphthalen-2-yl)carbamoyl)-4′-methoxy-[1,1′-biphenyl]-3-yl)-2-(tetrahydro-2H-pyran-4-carboxamido)acetic acid] as the molecule, how does the EC50 read?
Its EC50 is 4.2 nM.

For COc1ccc(-c2cc(C(NC(=O)C3CCOCC3)C(=O)O)ccc2F)cc1C(=O)Nc1cc2cc(Br)c(Br)cc2cc1C(=O)Nc1ccc(F)c(C(F)(F)F)c1 (stereo not drawn) [Example 3, 2-(3′-((6,7-dibromo-3-((4-fluoro-3-(trifluoromethyl)phenyl)-carbamoyl)naphthalen-2-yl)carbamoyl)-6-fluoro-4′-methoxy-[1,1′-biphenyl]-3-yl)-2-(tetrahydro-2H-pyran-4-carboxamido)acetic acid], which EC50 is on record?
Its EC50 is 190 nM.

With COc1ccc(-c2cc([C@H](OC(=O)NC3CCC3)C(F)(F)F)ccc2F)cc1C(=O)Nc1cc2ccccc2cc1C(=O)Nc1ccc(F)c(C(F)(F)F)c1 [Example 5, (S)-2,2,2-trifluoro-1-(6-fluoro-3′-((3-((4-fluoro-3-(trifluoromethyl)phenyl)carbamoyl)-naphthalen-2-yl)carbamoyl)-4′-methoxy-[1,1′-biphenyl]-3-yl)ethyl cyclobutylcarbamate] as the molecule, how does the EC50 read?
Its EC50 is 11 nM.

With COc1ccc(-c2cc(C(=O)O)ccc2F)cc1C(=O)Nc1cc2c(Br)cccc2cc1C(=O)Nc1ccc(F)c(C(F)(F)F)c1 [Example 6, 3′-((8-bromo-3-((4-fluoro-3-(trifluoromethyl)phenyl)carbamoyl)naphthalen-2-yl)carbamoyl)-6-fluoro-4′-methoxy-[1,1′-biphenyl]-3-carboxylic acid] as the molecule, how does the EC50 read?
Its EC50 is 1300 nM.

With COc1ccc(-c2cc(C(=O)O)ccc2F)cc1C(=O)Nc1cc2ccc(Br)cc2cc1C(=O)Nc1ccc(F)c(C(F)(F)F)c1 [Example 8, 3′-((6-bromo-3-((4-fluoro-3-(trifluoromethyl)phenyl)carbamoyl)naphthalen-2-yl)carbamoyl)-6-fluoro-4′-methoxy-[1,1′-biphenyl]-3-carboxylic acid] as the molecule, how does the EC50 read?
Its EC50 is 2600 nM.

Which EC50 does the source give for COc1ccc(S(=O)(=O)CCCO)cc1C(=O)Nc1cc2ccccc2cc1C(=O)Nc1ccc(F)c(C(F)(F)F)c1 [Example 9, N-(4-fluoro-3-(trifluoromethyl)phenyl)-3-(5-((3-hydroxypropyl)sulfonyl)-2-methoxybenzamido)-2-naphthamide] here?
The EC50 was 4800 nM.

With COc1ccc(C#C[C@H](C)O)cc1C(=O)Nc1cc2ccccc2cc1C(=O)Nc1ccc(F)c(C(F)(F)F)c1 [Example 10, (S)—N-(4-fluoro-3-(trifluoromethyl)phenyl)-3-(5-(3-hydroxybut-1-yn-1-yl)-2-methoxybenzamido)-2-naphthamide] as the molecule, how does the EC50 read?
The EC50 was 5000 nM.

For COc1ccc(N2CCCS2(=O)=O)cc1C(=O)Nc1cc2ccccc2cc1C(=O)Nc1ccc(F)c(C(F)(F)F)c1 [Example 11, 3-(5-(1,1-dioxidoisothiazolidin-2-yl)-2-methoxybenzamido)-N-(4-fluoro-3-(trifluoromethyl)-phenyl)-2-naphthamide], which EC50 is on record?
Its EC50 is 2000 nM.

For COc1ccc(-n2ncccc2=O)cc1C(=O)Nc1cc2ccccc2cc1C(=O)Nc1ccc(F)c(C(F)(F)F)c1 [Example 12, N-(4-fluoro-3-(trifluoromethyl)phenyl)-3-(2-methoxy-5-(6-oxopyridazin-1(6H)-yl)benzamido)-2-naphthamide], which EC50 is on record?
The EC50 was 1400 nM.

Tested on: not given
Test: not given
Settings: intravenous (IV) formulation; cited from earlier work

With Serelaxin as the molecule, how does the first-phase pharmacokinetic half-life read?
The first-phase pharmacokinetic half-life was 5.4 min.
